From US20260138961A1, “MODULATORS OF MITOCHONDRIAL DNA REPLICATION” (Pretzel Therapeutics, Inc., priority 2022, published 2026)

Molecular target: T1, POLγA:Y955C (Homo sapiens, UniProt P54098, Y955C)
T1 sequence (P54098 1-1239 Y955C): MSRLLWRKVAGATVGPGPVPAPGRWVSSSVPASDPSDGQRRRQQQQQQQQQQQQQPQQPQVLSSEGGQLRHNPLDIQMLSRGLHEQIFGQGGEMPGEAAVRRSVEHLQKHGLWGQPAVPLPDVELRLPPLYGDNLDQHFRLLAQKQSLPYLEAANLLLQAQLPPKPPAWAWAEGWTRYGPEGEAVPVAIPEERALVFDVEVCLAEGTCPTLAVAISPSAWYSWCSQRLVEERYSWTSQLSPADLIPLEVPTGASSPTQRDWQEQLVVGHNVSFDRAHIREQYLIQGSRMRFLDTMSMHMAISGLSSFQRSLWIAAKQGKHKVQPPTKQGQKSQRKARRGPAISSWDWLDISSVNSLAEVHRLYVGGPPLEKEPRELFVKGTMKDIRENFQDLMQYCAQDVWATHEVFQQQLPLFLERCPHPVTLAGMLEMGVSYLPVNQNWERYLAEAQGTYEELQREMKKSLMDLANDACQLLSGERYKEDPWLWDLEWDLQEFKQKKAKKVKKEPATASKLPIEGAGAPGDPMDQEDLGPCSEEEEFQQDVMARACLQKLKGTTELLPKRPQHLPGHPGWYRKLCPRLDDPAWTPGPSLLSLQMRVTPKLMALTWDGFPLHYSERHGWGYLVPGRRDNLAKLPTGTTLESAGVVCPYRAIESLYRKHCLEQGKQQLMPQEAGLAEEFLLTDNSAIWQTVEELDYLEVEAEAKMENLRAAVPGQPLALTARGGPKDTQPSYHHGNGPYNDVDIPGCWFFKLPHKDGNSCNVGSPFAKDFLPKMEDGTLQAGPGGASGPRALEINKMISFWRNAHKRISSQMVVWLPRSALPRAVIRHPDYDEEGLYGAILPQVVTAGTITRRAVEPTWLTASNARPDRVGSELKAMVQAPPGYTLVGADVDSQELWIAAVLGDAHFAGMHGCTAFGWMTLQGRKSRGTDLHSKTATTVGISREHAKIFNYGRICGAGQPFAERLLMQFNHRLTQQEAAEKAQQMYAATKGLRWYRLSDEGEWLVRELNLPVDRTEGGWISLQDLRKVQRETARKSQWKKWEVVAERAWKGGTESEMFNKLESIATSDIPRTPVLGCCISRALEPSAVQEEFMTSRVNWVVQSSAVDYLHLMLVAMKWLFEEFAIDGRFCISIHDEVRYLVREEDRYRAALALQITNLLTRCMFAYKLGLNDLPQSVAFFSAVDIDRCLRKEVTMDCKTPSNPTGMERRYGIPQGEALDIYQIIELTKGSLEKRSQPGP
T1 sequence (Q9UHN1 1-485 partner): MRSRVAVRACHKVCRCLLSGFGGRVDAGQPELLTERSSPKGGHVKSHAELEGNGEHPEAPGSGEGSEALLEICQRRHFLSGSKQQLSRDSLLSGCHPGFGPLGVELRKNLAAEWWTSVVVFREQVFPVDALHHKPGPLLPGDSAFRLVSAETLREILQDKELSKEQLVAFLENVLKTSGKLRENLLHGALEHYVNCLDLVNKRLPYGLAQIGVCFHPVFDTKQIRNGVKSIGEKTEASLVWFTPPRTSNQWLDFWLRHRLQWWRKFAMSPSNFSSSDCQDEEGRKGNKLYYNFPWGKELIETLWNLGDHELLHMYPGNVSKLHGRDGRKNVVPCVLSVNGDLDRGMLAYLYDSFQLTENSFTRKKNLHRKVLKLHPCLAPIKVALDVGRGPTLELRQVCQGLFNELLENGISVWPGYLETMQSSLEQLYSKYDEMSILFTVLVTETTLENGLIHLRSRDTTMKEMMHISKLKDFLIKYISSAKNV
Assay: DNA polymerization assay, POLγA:Y955C mutant
Format: biochemical
Conditions: stimulation of polymerase activity, primed M13mp18 ssDNA, 37° C. 2 hours
Method: DNA Polymerization Assay to Monitor Effects on Human Wildtype POLγ and Four Disease-Causing Mutant Variants of Human POLγ.
The ability of small molecules to stimulate the polymerase activity of POLγ was analyzed in a quantitative fluorescence SYBR Green I assay with fluorescence intensity (FI) readout.
In the presence of dNTPs, wild type human POLγ and mutant derivatives thereof were incubated with single-stranded, circular M13mp18 ssDNA hybridized to a short DNA oligonucleotide that functions as a primer for initiation of DNA synthesis. POLγ and mutant derivatives thereof will extend the primer and use the M13mp18 molecule as a template to synthesize long stretches of double-stranded DNA. SYBR Green I, which is a double-stranded DNA-binding dye, was used to quantify formation of double-stranded DNA in the reaction. When bound to double-stranded DNA, SYBR Green I fluorescence increases by up to 100-fold.
The assay was performed in the 384-well plate format. Upon addition of compounds, changes in double-stranded DNA synthesis activity can be monitored by following effects on fluorescent intensity.
The reactions also contained the accessory POLγB subunit, and the human mitochondrial single-stranded DNA binding protein (mtSSB).
The DNA template mixture used in the assay contained 0.5 nM primed M13 mp18 ssDNA, 400 nM mtSSB, 0.1 mM Tris-HCl (pH 8.0), 0.1 mM dNTP, 10 mM MgCl2, 0.1 mg/mL BSA, 1 mM TCEP solution, and 0.02% Triton X-100. The DNA template mixture for the wild type protein contained either 100 μM dNTP, 1 μM dNTP, or 0.1 μM dNTP, designated in Table 2 as 100 μM, 1 μM, and 0.1 μM, respectfully.
Microplates with compounds (0.1 μL in each well) to be tested in the assay were prepared from 10 mM compound stocks in 100% DMSO, and equal amounts of DMSO without any compound were added to positive and negative control wells.
The protein mixture was dispensed (5 μL into each well) into compound plates and incubated at 37° C. for 15 minutes. After incubation, 5 μL of the DNA template mixture was dispensed into each well. The plates were then incubated at 37° C. for 2 hours.
During incubation, a combined stop buffer and detection reagent solution was prepared. The buffer contained 25 mM EDTA (pH 8.0), 0.02% Triton X-100, and SYBR Green I [Invitrogen] diluted 10,000× (for fluorescent readout). EDTA will stop the enzymatic reaction by chelating magnesium ions.

Row | Compound | AC50 [nM]
1 | Cc1csc(-c2cccc(NS(=O)(=O)c3cc(C)c(Cl)cc3C)c2)n1 [Example 20, 4-chloro-2,5-dimethyl-N-(3-(4-methylthiazol-2-yl)phenyl)benzenesulfonamide] | 300
2 | Cc1cnc(-c2cccc(NS(=O)(=O)c3cc(C)c(Cl)cc3C)c2)s1 [Example 21, 4-chloro-2,5-dimethyl-N-(3-(5-methylthiazol-2-yl)phenyl)benzenesulfonamide] | 1000
3 | Cc1cc(S(=O)(=O)Nc2cccc(-c3cc(C4CC4)[nH]n3)c2)c(C)cc1Cl [Example 64, 4-chloro-N-(3-(5-cyclopropyl-1H-pyrazol-3-yl)phenyl)-2,5-dimethylbenzenesulfonamide] | > 100000
4 | Cc1cc(S(=O)(=O)Nc2ccc3ccn(C(C)C)c3c2)c(C)cc1Cl [Example 69, 4-chloro-N-(1-isopropyl-1H-indol-6-yl)-2,5-dimethylbenzenesulfonamide] | 400
5 | Cc1cc2cc(NS(=O)(=O)c3cc(C)c(Cl)cc3C)ccc2[nH]1 [Example 184, 4-chloro-2,5-dimethyl-N-(2-methyl-1H-indol-5-yl)benzenesulfonamide] | 2000

Continued, values first:

Row | AC50 [nM] | Compound
6 | 400 | Cc1ccc(C)c(S(=O)(=O)Nc2cccc(-c3nccs3)c2)c1 [Example 60]
7 | 2000 | CC[C@@H]1CCCN1C(=O)c1cccc(NS(=O)(=O)c2cc(C)c(Cl)cc2C)c1 [Example 65, (R)-4-chloro-N-(3-(2-ethylpyrrolidine-1-carbonyl)phenyl)-2,5-dimethylbenzenesulfonamide]
8 | 2000 | Cc1cc(-c2cccc(NS(=O)(=O)c3cc(C)c(Cl)cc3C)c2)n[nH]1 [Example 66, 4-chloro-2,5-dimethyl-N-(3-(5-methyl-1H-pyrazol-3-yl)phenyl)benzenesulfonamide]
9 | 2000 | Cc1cc(S(=O)(=O)Nc2cccc(-c3cc[nH]n3)c2)c(C)cc1Cl [Example 68, N-(3-(1H-pyrazol-3-yl)phenyl)-4-chloro-2,5-dimethylbenzenesulfonamide]
10 | 7000 | Cc1nc2ccc(NS(=O)(=O)c3cc(C)c(Cl)cc3C)cc2o1 [Example 70, 4-chloro-2,5-dimethyl-N-(2-methylbenzo[d]oxazol-6-yl)benzenesulfonamide]
